# From ChEMBL document CHEMBL3244272, “Folate antagonists. 15. 2,3-Diamino-6-(2-naphthylsulfonyl)quinazoline and related 2,4-diamino-6-[(phenyl and naphthyl)sulfinyl and sulfonyl]quinazolines, a potent new class of antimetabolites with phenomenal antimalarial activity” (J Med Chem, 1979)
# Calls of active or inactive are those of the source. No cut-off for these calls is given here.
# What was measured:
# Plasmodium gallinaceum [1] = assay: Antimalarial activity against cycloguanil-resistant Plasmodium gallinaceum infected in mouse assessed as dose required to suppress parasitemia by 90% compound treated through diet for 6 days relative to parent strain; assay type: functional
# Plasmodium falciparum [2] = assay: Antimalarial activity against chloroquine-sensitive, pyrimethamine-resistant Plasmodium falciparum Malayan Camp CH/Q infected in Aotus monkey assessed as dose required to >50% cures compound treated for 7 days; assay type: functional
# Plasmodium falciparum [3] = assay: Antimalarial activity against chloroquine-resistant, pyrimethamine-sensitive Plasmodium falciparum Vietnam Oak Knoll in Aotus monkey assessed as dose required to >50% cures compound treated for 7 days; assay type: functional
# Gallus gallus [4] = assay: Toxicity in trophozoite-induced Plasmodium gallinaceum infected in chick assessed as death at 80 mg/kg, sc single dose measured within 48 hrs; assay type: organism-based; design: dose 80 mg/kg, route subcutaneous; details: chicken, in vivo
# Plasmodium berghei [5] = assay: Antimalarial activity against trophozoite-induced Plasmodium berghei infected in sc dosed mouse assessed as minimum curative dose; assay type: functional
# Plasmodium berghei [6] = assay: Antimalarial activity against trophozoite-induced Plasmodium berghei infected in mouse assessed as change in mean survival time at 2.5 mg/kg, sc single dose after 72 hrs of infection; assay type: functional; details: route subcutaneous
# Plasmodium berghei [7] = assay: Antimalarial activity against trophozoite-induced Plasmodium berghei infected in mouse assessed as change in mean survival time at 1.25 mg/kg, sc single dose after 72 hrs of infection; assay type: functional; details: route subcutaneous
# Plasmodium gallinaceum [8] = assay: Antimalarial activity against trophozoite-induced Plasmodium gallinaceum infected in chick assessed as mean survival time at 10 mg/kg, sc single dose (reference value: 4 days); assay type: functional; details: route subcutaneous
# Plasmodium gallinaceum [9] = assay: Antimalarial activity against trophozoite-induced Plasmodium gallinaceum infected in chick assessed as mean survival time at 5 mg/kg, sc single dose (reference value: 4 days); assay type: functional; details: route subcutaneous
# Plasmodium gallinaceum [10] = assay: Antimalarial activity against trophozoite-induced Plasmodium gallinaceum infected in chick assessed as mean survival time at 2.5 mg/kg, sc single dose (reference value: 4 days); assay type: functional; details: route subcutaneous
# Plasmodium gallinaceum [11] = assay: Antimalarial activity against trophozoite-induced Plasmodium gallinaceum infected in chick assessed as mean survival time at 1.25 mg/kg, sc single dose (reference value: 4 days); assay type: functional; details: route subcutaneous
# Plasmodium gallinaceum [12] = assay: Antimalarial activity against trophozoite-induced Plasmodium gallinaceum infected in chick assessed as mean survival time at 0.63 mg/kg, sc single dose (reference value: 4 days); assay type: functional; details: route subcutaneous
# Plasmodium gallinaceum [13] = assay: Antimalarial activity against trophozoite-induced Plasmodium gallinaceum infected in chick assessed as cured at 2.5 mg/kg, sc single dose; assay type: functional, organism-based; design: dose 2.5 mg/kg
# Plasmodium gallinaceum [14] = assay: Antimalarial activity against trophozoite-induced Plasmodium gallinaceum infected in chick assessed as cured at 1.25 mg/kg, sc single dose; assay type: functional, organism-based; design: dose 1.25 mg/kg
# Plasmodium gallinaceum [15] = assay: Antimalarial activity against trophozoite-induced Plasmodium gallinaceum infected in chick assessed as cured at 0.63 mg/kg, sc single dose; assay type: functional, organism-based; design: dose 0.63 mg/kg
# Gallus gallus [16] = assay: Toxicity in trophozoite-induced Plasmodium gallinaceum infected in chick assessed as death at 160 mg/kg, sc single dose measured within 48 hrs; assay type: organism-based; design: dose 160 mg/kg, route subcutaneous; details: chicken, in vivo
# Gallus gallus [17] = assay: Toxicity in trophozoite-induced Plasmodium gallinaceum infected in chick assessed as death at 40 mg/kg, sc single dose measured within 48 hrs; assay type: organism-based; design: dose 40 mg/kg, route subcutaneous; details: chicken, in vivo
# Gallus gallus [18] = assay: Toxicity in trophozoite-induced Plasmodium gallinaceum infected in chick assessed as death at 20 mg/kg, sc single dose measured within 48 hrs; assay type: organism-based; design: dose 20 mg/kg, route subcutaneous; details: chicken, in vivo
# Gallus gallus [19] = assay: Toxicity in trophozoite-induced Plasmodium gallinaceum infected in chick assessed as death at 10 mg/kg, sc single dose measured within 48 hrs; assay type: organism-based; design: dose 10 mg/kg, route subcutaneous; details: chicken, in vivo
# Gallus gallus [20] = assay: Toxicity in trophozoite-induced Plasmodium gallinaceum infected in chick assessed as death at 5 mg/kg, sc single dose measured within 48 hrs; assay type: organism-based; design: dose 5 mg/kg, route subcutaneous; details: chicken, in vivo
# Gallus gallus [21] = assay: Toxicity in trophozoite-induced Plasmodium gallinaceum infected in chick assessed as death at 2.5 mg/kg, sc single dose measured within 48 hrs; assay type: organism-based; design: dose 2.5 mg/kg, route subcutaneous; details: chicken, in vivo
# Gallus gallus [22] = assay: Toxicity in trophozoite-induced Plasmodium gallinaceum infected in chick assessed as death at 1.25 mg/kg, sc single dose measured within 48 hrs; assay type: organism-based; design: dose 1.25 mg/kg, route subcutaneous; details: chicken, in vivo
# Gallus gallus [23] = assay: Toxicity in trophozoite-induced Plasmodium gallinaceum infected in chick assessed as death at 0.63 mg/kg, sc single dose measured within 48 hrs; assay type: organism-based; design: dose 0.63 mg/kg, route subcutaneous; details: chicken, in vivo
# Gallus gallus [24] = assay: Toxicity in trophozoite-induced Plasmodium gallinaceum infected in chick assessed as death at 320 mg/kg, sc single dose measured within 48 hrs; assay type: organism-based; design: dose 320 mg/kg, route subcutaneous; details: chicken, in vivo
structure (smiles),measurement,setting,value
Nc1nc(N)c2cc(Sc3ccc(Cl)cc3)ccc2n1,fold change (FC),Plasmodium gallinaceum [1],4
same,Activity,Plasmodium falciparum [2],5 mg/kg
same,Activity,Plasmodium falciparum [3],0.31 mg/kg
Nc1nc(N)c2cc(S(=O)(=O)c3ccc(Cl)cc3)ccc2n1,Activity,Gallus gallus [4],Toxic
same,MCD,Plasmodium berghei [5],40 mg/kg
same,MST,Plasmodium berghei [6],12.2 days
same,MST,Plasmodium berghei [7],7.7 days
same,MST,Plasmodium gallinaceum [8],20 days
same,MST,Plasmodium gallinaceum [9],16 days
same,MST,Plasmodium gallinaceum [10],15 days
same,MST,Plasmodium gallinaceum [11],7.4 days
same,MST,Plasmodium gallinaceum [12],4 days
same,Activity,Plasmodium gallinaceum [13],Active
same,Activity,Plasmodium gallinaceum [14],Active
same,Activity,Plasmodium gallinaceum [15],Active
same,Activity,Gallus gallus [16],Toxic
same,Activity,Gallus gallus [17],Toxic
same,Activity,Gallus gallus [18],Toxic
same,Activity,Gallus gallus [19],Toxic
same,Activity,Gallus gallus [20],Toxic
same,Activity,Gallus gallus [21],Toxic
same,Activity,Gallus gallus [22],Toxic
same,Activity,Gallus gallus [23],Toxic
same,Activity,Gallus gallus [24],Toxic
